Measured values published in patent US9145351B2, “Azole derivatives, methods for producing the same, intermediate thereof, agro-horticultural agents” (KUREHA CORPORATION, priority 2009, dated 2015).
Where two headings read alike, the source gives them in different places.

Tests used:
Format in all cases: cell-based
[1] = tested on: Giberella fujikuroi; assay: Plate medium fungicidal assay, rice bakanae disease G.f (Experimental Example 5)
In short: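 Gibberella fujikuroi mycelial plugs (4 mm) placed on PDA plates containing compound at 50 mg/L and 5 mg/L, added from DMSO solution. Colony diameter compared with untreated plates as % inhibition = 100(dc−dt)/dc, then scored in 5 grades.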

[2] = tested on: Sclerotinia sclerotiorum; assay: Plate medium fungicidal assay, Sclerotinia rot S.s (Experimental Example 5); details: for inhibition at 5 µg/mL / inhibition at 50 µg/mL: Sclerotinia sclerotiorum
In short: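 A 4 mm mycelial plug was placed on PDA plates containing compound at 50 mg/L and 5 mg/L, added from DMSO solution. Colony diameters were compared with untreated plates, % mycelial growth inhibition was R=100(dc−dt)/dc, and scores fell into 5 grades.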

[3] = tested on: Pyricularia oryzae; assay: microbe, parasite or virus in culture; details: for inhibition at 5 µg/mL / inhibition at 50 µg/mL: Pyricularia oryzae; for Growth inhibition grade, P.o: plate medium
[4] = tested on: Ustilago nuda; assay: Plate medium fungicidal assay, barley loose smut U.n (Experimental Example 5); details: for inhibition at 5 µg/mL / inhibition at 50 µg/mL: Ustilago nuda
In short: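 Compounds in DMSO were mixed into molten PDA to give plates at 50 mg/L and 5 mg/L, then inoculated with a 4 mm mycelial plug. Colony diameter was compared with untreated plates as % inhibition = 100(dc−dt)/dc, scored on a 5-grade scale.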

[5] = tested on: Botritis cinerea; assay: Plate medium fungicidal assay, gray mold B.c (Experimental Example 5)
In short: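 Compounds in DMSO were incorporated into PDA plate medium at 50 mg/L and 5 mg/L, then inoculated with 4 mm mycelial plugs of Botrytis cinerea. Colony diameter versus untreated plates gave % mycelial growth inhibition, R=100(dc−dt)/dc, scored on a 5-grade scale.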

[6] = tested on: Rhynchosporium secalis; assay: Plate medium fungicidal assay, barley leaf blotch R.sec (Experimental Example 5); details: for inhibition at 5 µg/mL / inhibition at 50 µg/mL: Rhynchosporium secalis
In short: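 Compound in DMSO mixed into PDA plate medium at 50 mg/L and 5 mg/L; 4 mm mycelial plug of the fungus inoculated. Colony diameter compared with untreated plates gives % mycelial growth inhibition R=100(dc−dt)/dc, scored on a 5-grade scale.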

[7] = plate medium containing compound at 5 mg/L, read-out: Growth inhibition grade, G.f
[8] = plate medium containing compound at 50 mg/L, read-out: Growth inhibition grade, G.f
[9] = plate medium containing compound at 5 mg/L, read-out: Growth inhibition grade, S.s
[10] = plate medium containing compound at 50 mg/L, read-out: Growth inhibition grade, S.s
[11] = read-out: Growth inhibition grade, P.o
[12] = plate medium containing compound at 5 mg/L, read-out: Growth inhibition grade, U.n
[13] = plate medium containing compound at 50 mg/L, read-out: Growth inhibition grade, U.n
[14] = plate medium containing compound at 5 mg/L, read-out: Growth inhibition grade, B.c
[15] = plate medium containing compound at 50 mg/L, read-out: Growth inhibition grade, B.c
[16] = plate medium containing compound at 5 mg/L, read-out: Growth inhibition grade, R.sec
[17] = plate medium containing compound at 50 mg/L, read-out: Growth inhibition grade, R.sec
[18] = plate medium, 5 mg/L, read-out: growth inhibition grade G.f
[19] = plate medium, 50 mg/L, read-out: growth inhibition grade G.f
[20] = plate medium, 5 mg/L, read-out: growth inhibition grade S.s
[21] = plate medium, 50 mg/L, read-out: growth inhibition grade S.s
[22] = read-out: growth inhibition grade P.o
[23] = plate medium, 5 mg/L, read-out: growth inhibition grade U.n
[24] = plate medium, 50 mg/L, read-out: growth inhibition grade U.n
[25] = plate medium, 5 mg/L, read-out: growth inhibition grade B.c
[26] = plate medium, 50 mg/L, read-out: growth inhibition grade B.c
[27] = plate medium, 5 mg/L, read-out: growth inhibition grade R.sec
[28] = plate medium, 50 mg/L, read-out: growth inhibition grade R.sec

| SMILES | inhibition at 5 µg/mL [1, 7] [%] | inhibition at 50 µg/mL [1, 8] [%] | inhibition at 5 µg/mL [2, 9] [%] | inhibition at 50 µg/mL [2, 10] [%] | inhibition at 5 µg/mL [3, 11] [%] | inhibition at 50 µg/mL [3, 11] [%] | inhibition at 5 µg/mL [4, 12] [%] | inhibition at 50 µg/mL [4, 13] [%] | inhibition at 5 µg/mL [1, 18] [%] | inhibition at 50 µg/mL [1, 19] [%] | inhibition at 5 µg/mL [2, 20] [%] | inhibition at 50 µg/mL [2, 21] [%] | inhibition at 5 µg/mL [3, 22] [%] | inhibition at 50 µg/mL [3, 22] [%] | inhibition at 5 µg/mL [4, 23] [%] | inhibition at 50 µg/mL [4, 24] [%] | inhibition at 5 µg/mL [5, 25] [%] | inhibition at 50 µg/mL [5, 26] [%] | inhibition at 5 µg/mL [6, 27] [%] | inhibition at 50 µg/mL [6, 28] [%] | further results |
| --- | --- | --- | --- | --- | --- | --- | --- | --- | --- | --- | --- | --- | --- | --- | --- | --- | --- | --- | --- | --- | --- |
| CC[C@]1(CCl)CC[C@@H](Cc2ccc(Cl)cc2)[C@]1(O)Cn1cncn1 (racemic) [Compound I-36, (1RS,2SR,5SR)-5-(4-chlorobenzyl)-2-chloromethyl-2-ethyl-1-(1H-1,2,4-triazol-1-ylmethyl)cyclopentanol] | > 80 | > 80 | > 80 | > 80 | > 80 | > 80 | 60 to 80 | > 80 |  |  |  |  |  |  |  |  |  |  |  |  | inhibition at 5 µg/mL [5, 14]: 60 to 80%; inhibition at 50 µg/mL [5, 15]: > 80%; inhibition at 5 µg/mL [6, 16]: > 80%; inhibition at 50 µg/mL [6, 17]: > 80% |
| C[C@]1(CCl)CC[C@@H](Cc2ccccc2)[C@]1(O)Cn1cncn1 (racemic) [Compound I-73, (1RS,2SR,5SR)-2-chloromethyl-5-benzyl-2-methyl-1-(1H-1,2,4-triazol-1-ylmethyl)cyclopentanol] | > 80 | > 80 | > 80 | > 80 | > 80 | > 80 | > 80 | > 80 | > 80 | > 80 | > 80 | > 80 | > 80 | > 80 | > 80 | > 80 | > 80 | > 80 | > 80 | > 80 | inhibition at 5 µg/mL [5, 14]: > 80%; inhibition at 50 µg/mL [5, 15]: > 80%; inhibition at 5 µg/mL [6, 16]: > 80%; inhibition at 50 µg/mL [6, 17]: > 80% |
| C[C@]1(CBr)CC[C@@H](Cc2ccccc2)[C@]1(O)Cn1cncn1 (racemic) [Compound I-602, (1RS,2SR,5SR)-2-bromomethyl-5-benzyl-2-methyl-1-(1H-1,2,4-triazol-1-ylmethyl)cyclopentanol] |  |  |  |  |  |  |  |  | > 80 | > 80 | > 80 | > 80 | > 80 | > 80 | 60 to 80 | > 80 | 60 to 80 | > 80 | > 80 | > 80 |  |
| C[C@@]1(CCl)CC[C@@H](Cc2cccc(Cl)c2)[C@]1(O)Cn1cncn1 (relative stereo) [Compound I-174] |  |  |  |  |  |  |  |  |  |  |  |  |  |  |  |  |  |  |  |  | Growth inhibition grade, G.f ([1]; plate medium, 5 mg/L): 5 (% Mycerial growth inhibition of 80% or higher); Growth inhibition grade, G.f ([1]; plate medium, 50 mg/L): 5 (% Mycerial growth inhibition of 80% or higher); Growth inhibition grade, S.s ([2]; plate medium, 5 mg/L): 5 (% Mycerial growth inhibition of 80% or higher); Growth inhibition grade, S.s ([2]; plate medium, 50 mg/L): 5 (% Mycerial growth inhibition of 80% or higher); Growth inhibition grade, P.o ([3]; 5 mg/L): 5 (% Mycerial growth inhibition of 80% or higher); Growth inhibition grade, P.o ([3]; 50 mg/L): 5 (% Mycerial growth inhibition of 80% or higher); Growth inhibition grade, U.n ([4]; plate medium, 5 mg/L): 4 (% Mycerial growth inhibition of less than 80 to 60% or higher); Growth inhibition grade, U.n ([4]; plate medium, 50 mg/L): 5 (% Mycerial growth inhibition of 80% or higher); Growth inhibition grade, B.c ([5]; plate medium, 5 mg/L): 5 (% Mycerial growth inhibition of 80% or higher); Growth inhibition grade, B.c ([5]; plate medium, 50 mg/L): 5 (% Mycerial growth inhibition of 80% or higher); Growth inhibition grade, R.sec ([6]; plate medium, 5 mg/L): 5 (% Mycerial growth inhibition of 80% or higher); Growth inhibition grade, R.sec ([6]; plate medium, 50 mg/L): 5 (% Mycerial growth inhibition of 80% or higher) |
| O[C@]1(Cn2cncn2)[C@@H](Cc2ccc(Cl)cc2)CC[C@@H]1C(F)(F)F (racemic) [Compound I-365, (1RS,2SR,5RS)-5-(4-chlorobenzyl)-2-trifluoromethyl-1-(1H-1,2,4-triazol-1-ylmethyl)cyclopentanol] |  |  |  |  |  |  |  |  | < 20 | > 80 | 20 to 40 | > 80 | < 20 | > 80 | 20 to 40 | > 80 | < 20 | > 80 | 20 to 40 | > 80 |  |
